This passage reports chromatographic logP results from US20040157740A1, “Heterocyclyl phenyl benzyl ethers used as fungicides” (priority 2001, published 2004).

A short description of the data set: logP determination by HPLC (EEC Directive 79/831 Annexe V. A8, gradient method). In kind it is physicochemical. Conditions: pH 2; read-out: log P (pH 2).
As for `COc1ccc(-c2nnnn2C(F)F)cc1C` [Example V-7], the chromatographic logP stood at 2.51.
In the case of `C#CCn1nnnc1-c1ccc(OC)c(C)c1` [Example V-5], the chromatographic logP was determined as 2.12.
As to `C#CCn1nnc(-c2ccc(OC)c(C)c2)n1` [Example V-44], the chromatographic logP was 2.75.
With `Cc1cc(-c2nc(C(F)(F)F)ns2)ccc1OCc1ccc(Cl)cc1` [Example V-9, 3-trifluoromethyl-5-[3-methyl-4-(4-chlorobenzyloxy)phenyl]-1,2,4-thiadiazole], the chromatographic logP was 5.78.
As for `CO/N=C(/C(=O)OC)c1ccccc1COc1ccc(-c2nnn(C)n2)cc1C` [Example 1, methyl 2-[4-(2-methyltetrazol-5-yl)-2-methylphenoxy]methylphenylglyoxylate O-methyl oxime], the chromatographic logP turned out to be 3.08.
In the case of `Cc1cc(-c2nnn(C)n2)ccc1O` [Example III-1, 2-methyl-5-(3-methyl-4-hydroxyphenyl)tetrazole] it was 1.45.
Take `COc1ccc(-c2nn[nH]n2)cc1C` [Example V-1, 5-(3-methyl-4-methoxyphenyl)tetrazole]: the chromatographic logP was determined as 1.51.
On to `Cc1cc(-c2nnnn2C)ccc1O` [1-methyl-5-(3-methyl-4-hydroxyphenyl)tetrazole], for which the chromatographic logP worked out at 1.04.
With `CCc1nc(-c2ccc(OC)c(C)c2)no1` [Example V-8], the chromatographic logP was determined as 3.19.
In the case of `COc1ccc(-c2nnn(C)n2)cc1C` [Example V-2, 2-methyl-5-(3-methyl-4-methoxyphenyl)tetrazole] it was 2.38.
For the molecule `COc1ccc(/C(N)=N/O)cc1C` [Example VII-I, 3-methyl-4-methoxybenzamideoxime], the chromatographic logP amounted to 0.36.
With `CNC(=O)/C(=N/OC)c1ccccc1COc1ccc(-c2nnn(C)n2)cc1C` [Example 2, N-methyl-2-[4-(2-methyltetrazol-5-yl)-2-methylphenoxy]methylphenylglyoxylamide O-methyl oxime], the chromatographic logP stood at 2.58.
Consider `Cc1cc(-c2nc(C(F)(F)F)ns2)ccc1O` [Example III-3, 3-trifluoromethyl-5-(3-methyl-4-hydroxyphenyl)-1,2,4-thiadiazole], for which the chromatographic logP is 3.1.
The result for `Cc1cc(-c2nnn(C(F)F)n2)ccc1O` [Example III-7] reads 2.18; that for `C#CCn1nnnc1-c1ccc(O)c(C)c1` [Example III-6], 1.41; that for `CO/N=C(/C(=O)OC)c1ccccc1COc1ccc(-c2nc(C(F)(F)F)ns2)cc1C` [Example 5, methyl 2-[4-(3-trifluoromethyl-1,2,4-thiadiazol-5-yl)-2-methylphenoxy]methylphenylglyoxylate O-methyl oxime], 4.62.
Turning to `Cc1cc(-c2nnnn2C(F)F)ccc1O` [Example III-8], the chromatographic logP was found to be 1.75.
In the case of `COc1ccc(-c2nnn(C(C)(C)C)n2)cc1C` [Example V-3] it was 3.78; in that of `C#CCn1nnc(-c2ccc(O)c(C)c2)n1` [Example III-5], 1.81.
Take `CCc1nc(-c2ccc(OCc3ccccc3/C(=N\OC)C(=O)NC)c(C)c2)no1` [Example 4, N-methyl-2-[4-(5-ethyl-1,2,4-oxadiazol-3-yl)-2-methylphenoxy]methylphenylglyoxylamide O-methyl oxime]: the chromatographic logP worked out at 3.24.
For the molecule `COc1ccc(-c2nnn(C(F)F)n2)cc1C` [Example V-6], the chromatographic logP came to 3.24.
In the case of `CCc1nc(-c2ccc(OCc3ccccc3/C(=N\OC)C(=O)OC)c(C)c2)no1` [Example 3, methyl 2-[4-(5-ethyl-1,2,4-oxadiazol-3-yl)-2-methylphenoxy]methylphenylglyoxylate O-methyl oxime] it was 3.8.
Regarding `CNC(=O)/C(=N/OC)c1ccccc1COc1ccc(-c2nc(C(F)(F)F)ns2)cc1C` [Example 6, N-methyl-2-[4-(3-trifluoromethyl-1,2,4-thiadiazol-5-yl)-2-methylphenoxy]methylphenylglyoxylamide O-methyl oxime], the chromatographic logP worked out at 4.08.
As to `CCc1nc(-c2ccc(O)c(C)c2)no1` [Example III-2, 5-ethyl-3-(3-methyl-4-hydroxyphenyl)-1,2,4-oxadiazole], the chromatographic logP is 2.08.
The result for `Cc1cc(-c2nnn(C(C)(C)C)n2)ccc1O` [Example III-4] reads 2.54.
